Measurements as given in PMC3074303 (Biochemistry, 2010).

Target: arrestin-1 (visual arrestin) (Bos taurus, UniProt P08168, F197A/F85A)
Experiment: 2D 1H-15N TROSY NMR chemical shift titration fitted to a […] model
Format: binding

Chain of arrestin-1 (visual arrestin) (P08168 whole entry F85A/F197A): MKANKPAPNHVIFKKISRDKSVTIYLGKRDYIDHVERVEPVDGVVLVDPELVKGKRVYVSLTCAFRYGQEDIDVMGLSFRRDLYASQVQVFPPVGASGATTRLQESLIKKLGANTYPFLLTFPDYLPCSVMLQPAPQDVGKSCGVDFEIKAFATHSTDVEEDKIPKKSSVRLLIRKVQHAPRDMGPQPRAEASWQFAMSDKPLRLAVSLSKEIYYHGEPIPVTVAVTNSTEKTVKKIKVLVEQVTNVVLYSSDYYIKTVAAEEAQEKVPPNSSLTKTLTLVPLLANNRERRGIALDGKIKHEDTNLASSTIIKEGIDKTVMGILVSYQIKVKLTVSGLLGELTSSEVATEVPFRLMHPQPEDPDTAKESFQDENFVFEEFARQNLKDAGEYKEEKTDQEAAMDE

O=P(O)(O)O[C@H]1[C@H](OP(=O)(O)O)[C@@H](OP(=O)(O)O)[C@H](OP(=O)(O)O)[C@@H](OP(=O)(O)O)[C@H]1OP(=O)(O)O [IP6]
Kd: 160 ± 60 µM
